Legend:
[1] = biological target: T1, creatine transporter SLC6A8 (Homo sapiens, UniProt P48029); test: creatine uptake assay after photo-crosslinking of reactive affinity probe; type: cell-based; conditions: 100 μM JN-1724 with or without 1 mM β-GPA, 30 minutes, 6 minutes 365 nm; FIG. 3
T1 construct: host or cells: 'Cells', not specified
T1 sequence (P48029 1-635): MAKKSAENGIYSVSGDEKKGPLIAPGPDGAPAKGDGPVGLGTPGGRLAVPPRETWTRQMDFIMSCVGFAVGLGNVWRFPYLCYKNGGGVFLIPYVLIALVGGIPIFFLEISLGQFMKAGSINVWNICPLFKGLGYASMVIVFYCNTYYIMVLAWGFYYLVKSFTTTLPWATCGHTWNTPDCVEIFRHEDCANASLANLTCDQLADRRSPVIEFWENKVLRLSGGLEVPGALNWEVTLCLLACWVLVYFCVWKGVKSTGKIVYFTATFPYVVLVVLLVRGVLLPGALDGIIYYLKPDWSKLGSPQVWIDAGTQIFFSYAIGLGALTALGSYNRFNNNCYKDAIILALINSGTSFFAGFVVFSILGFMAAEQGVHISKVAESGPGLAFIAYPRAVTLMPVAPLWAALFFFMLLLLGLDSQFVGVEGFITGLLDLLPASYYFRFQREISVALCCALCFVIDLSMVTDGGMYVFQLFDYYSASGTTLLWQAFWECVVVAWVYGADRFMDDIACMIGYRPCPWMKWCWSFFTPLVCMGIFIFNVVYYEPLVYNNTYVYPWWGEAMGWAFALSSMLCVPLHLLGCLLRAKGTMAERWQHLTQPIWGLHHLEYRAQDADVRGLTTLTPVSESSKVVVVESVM
Experimental: Cells were dosed for 30 minutes with 100 μM JN-1724 with or without 1 mM β-GPA and then irradiated for 6 minutes with 365 nm light. Cells were washed and the residual transport activity of SLC6A8 was measured via a creatine uptake assay.
RAPID identifies orthosteric and allosteric ligands as starting points or probes for target occupancy. The extent of covalent modification of the creatine transporter by a subset of the RAP library is highly reproducible (FIG. 2A). Screen of 2000 RAPs against the creatine transporter SLC6A8±the substrate analog guanidinoproprionic acid (GPA) identifies substrate-sensitive binder (FIG. 2B). Dots that fall off-diagonal are either substrate-competitive or substrate-cooperative. Two RAPs identified from the screen show dose-dependent inhibition or enhancement of covalent modification of the target as a function of the concentration of GPA (FIG. 2C).
A 30 minute 100 μM dose of JN-1724 followed by 6 minutes of cross-linking at 365 nm is enough to inhibit SLC6A8 transport of creatine to 5.7% of normal transport. […] Cells were lysed; biotin was clicked on; and biotinylated proteins were affinity-purified with streptavidin, digested with trypsin, and identified by tandem mass spectrometry with TMT quantification. […]

SLC6A8 = biological target: T2, SLC6A8 (Homo sapiens, UniProt P48029); test: target engagement by mass spectrometry of the adductome (streptavidin enrichment, TMT quantification); type: binding; conditions: co-dosing 1 mM β-GPA with 20 μM JN-1724, 30 minutes, 6 minutes 365 nm
T2 construct: host or cells: 'Cells', not specified
T2 sequence (P48029 1-635): T1 sequence (P48029 1-635)
Experimental: Cells were dosed for 30 minutes with 20 μM JN-1724 with or without 1 mM β-GPA and then irradiated for 6 minutes with 365 nm light. Cells were lysed; biotin was clicked on; and biotinylated proteins were affinity-purified with streptavidin, digested with trypsin, and identified by tandem mass spectrometry with TMT quantification. SLC6A8 (dot pointed at with arrow) was one of the proteins identified and co-dosing with 1 mM β-GPA reduced the level of enrichment by 80%.
A 30 minute 100 μM dose of JN-1724 followed by 6 minutes of cross-linking at 365 nm is enough to inhibit SLC6A8 transport of creatine to 5.7% of normal transport. To confirm target engagement by unbiased mass spectrometry of the adductome, Cells were dosed for 30 minutes with 20 μM JN-1724 with or without 1 mM β-GPA and then irradiated for 6 minutes with 365 nm light. Cells were lysed; biotin was clicked on; and biotinylated proteins were affinity-purified with streptavidin, digested with trypsin, and identified by tandem mass spectrometry with TMT quantification. SLC6A8 (dot pointed at with arrow) was one of the proteins identified and co-dosing with 1 mM β-GPA reduced the level of enrichment by 80% (FIG. 4).

## N=C(N)NCCC(=O)O [β-GPA, β-guanidinoproprionic acid]
[1]
  effect on residual transport activity of SLC6A8: protection
SLC6A8
  reduction of the level of enrichment of SLC6A8: 80%
